Data as given in ChEMBL document CHEMBL1212798, “High concentration of raltegravir in semen of HIV-infected men: results from a substudy of the EASIER-ANRS 138 trial” (2010).

Experiments:
Format in all cases: functional
[1] = system: Human immunodeficiency virus 1; assay: Antiviral activity against HIV1-infected in human assessed as decrease in semen viral RNA level measured after 5 hrs post dose
[2] = system: Human immunodeficiency virus 1; assay: Antiviral activity against HIV1-infected in human assessed as decrease in plasma viral RNA level measured after 9 hrs post dose
[3] = system: Human immunodeficiency virus 1; assay: Antiviral activity against HIV1

Cc1nnc(C(=O)NC(C)(C)c2nc(C(=O)NCc3ccc(F)cc3)c(O)c(=O)n2C)o1 [RALTEGRAVIR]
Activity [1]: 100 mL⁻¹
Activity [2]: 50 mL⁻¹
Virucidal [3]: 14.6 ng/mL
